Measured values as given in ChEMBL document CHEMBL1201862, “PubChem BioAssay data set” (2004).
Where a name gives a salt, the structure may show the parent alone. Active and inactive are the calls of the source.

How the values were obtained:
[1] = biological target: Luciferin 4-monooxygenase (Photinus pyralis, UniProt P08659); assay: firefly luciferase enzyme inhibitors, dose response, biochemical, luminescence (AID 1891)
[2] = Luminescence Cell-Based Dose Confirmation HTS to Identify Inhibitors of Platelet Dense Granule Release. [Related pubchem assays: 1663 (Primary HTS), 1678 (Summary of Project)]; assay type: functional
Cytochrome P450 2C19 = Cytochrome P450 2C19 (Homo sapiens, UniProt P33261); assay: Cytochrome panel assay with activity outcomes. Panel member name: p450-cyp2c19 Compounds with AC50 equal or less than 10 uM are considered active; assay type: functional
[3] = biological target: T1, Replicative DNA helicase DnaB (Mycobacterium tuberculosis, UniProt P9WMR3); assay: DnaB intein splicing inhibitors, dose response, biochemical, cell-free fluorescence (AID 449749); assay type: functional
T1 sequence (P9WMR3 whole entry): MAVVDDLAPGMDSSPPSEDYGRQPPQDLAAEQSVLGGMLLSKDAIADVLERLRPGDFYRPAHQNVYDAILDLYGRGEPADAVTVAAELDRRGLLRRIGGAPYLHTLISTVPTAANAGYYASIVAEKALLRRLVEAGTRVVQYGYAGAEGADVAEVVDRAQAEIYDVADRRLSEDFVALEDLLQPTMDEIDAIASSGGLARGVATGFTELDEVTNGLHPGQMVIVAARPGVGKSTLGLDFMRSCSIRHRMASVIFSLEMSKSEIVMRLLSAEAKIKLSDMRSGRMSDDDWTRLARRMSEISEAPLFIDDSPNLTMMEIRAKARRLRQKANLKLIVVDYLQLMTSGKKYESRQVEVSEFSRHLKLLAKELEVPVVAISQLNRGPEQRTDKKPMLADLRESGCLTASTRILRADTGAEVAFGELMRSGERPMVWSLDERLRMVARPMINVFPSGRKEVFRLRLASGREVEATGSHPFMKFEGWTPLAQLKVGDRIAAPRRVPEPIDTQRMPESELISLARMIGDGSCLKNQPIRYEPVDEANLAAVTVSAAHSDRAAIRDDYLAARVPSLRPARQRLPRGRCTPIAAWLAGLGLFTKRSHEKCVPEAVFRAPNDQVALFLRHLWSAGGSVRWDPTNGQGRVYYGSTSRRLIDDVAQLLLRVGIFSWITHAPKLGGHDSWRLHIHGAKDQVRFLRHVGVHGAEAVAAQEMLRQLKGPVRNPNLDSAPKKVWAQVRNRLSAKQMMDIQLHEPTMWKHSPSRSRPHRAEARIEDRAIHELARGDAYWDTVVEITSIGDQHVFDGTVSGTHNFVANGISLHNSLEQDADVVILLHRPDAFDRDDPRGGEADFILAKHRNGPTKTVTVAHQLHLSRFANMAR

Protein RecA = biological target: T2, Protein RecA (Mycobacterium tuberculosis, UniProt P9WHJ3); assay: Fluorescence Cell-Free Homogeneous Dose Retest to Identify Inhibitors of RecA-Intein Splicing Activity. [Related pubchem assays (depositor defined):AID2097, AID2223, AID489010, AID492950]; assay type: functional
T2 sequence (P9WHJ3 whole entry): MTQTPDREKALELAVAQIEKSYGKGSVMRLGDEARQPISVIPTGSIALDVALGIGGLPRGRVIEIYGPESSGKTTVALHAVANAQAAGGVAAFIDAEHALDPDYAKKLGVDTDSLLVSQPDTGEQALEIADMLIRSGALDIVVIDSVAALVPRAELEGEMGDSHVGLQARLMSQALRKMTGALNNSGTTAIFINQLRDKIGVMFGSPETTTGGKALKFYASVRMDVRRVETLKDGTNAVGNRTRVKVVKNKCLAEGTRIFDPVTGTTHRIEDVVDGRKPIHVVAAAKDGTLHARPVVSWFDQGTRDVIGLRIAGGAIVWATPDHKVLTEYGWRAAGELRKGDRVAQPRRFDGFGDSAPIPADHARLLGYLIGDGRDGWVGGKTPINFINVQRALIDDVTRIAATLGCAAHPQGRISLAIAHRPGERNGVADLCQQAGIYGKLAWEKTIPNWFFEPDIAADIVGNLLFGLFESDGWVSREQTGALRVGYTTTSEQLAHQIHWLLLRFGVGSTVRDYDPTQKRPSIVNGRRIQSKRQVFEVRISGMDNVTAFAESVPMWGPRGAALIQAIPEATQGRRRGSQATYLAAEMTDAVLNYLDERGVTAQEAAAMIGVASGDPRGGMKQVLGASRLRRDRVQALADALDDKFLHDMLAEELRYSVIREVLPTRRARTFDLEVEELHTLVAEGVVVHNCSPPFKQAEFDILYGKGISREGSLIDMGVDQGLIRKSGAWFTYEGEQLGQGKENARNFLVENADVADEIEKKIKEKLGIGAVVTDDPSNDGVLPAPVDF

[4] = Luminescence Cell-Based Dose Retest to Confirm Inhibitors of Cancer Stem Cells. [Related pubchem assays (depositor defined):AID2717, AID2721]; assay type: functional; settings: Homo sapiens
[5] = cytotoxicity toward NIH3T3 fibroblasts, dose response, counter-screen, cell-based, ATP luminescence, mouse fibroblasts (AID 2010); assay type: functional;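 note: cells exposed to compound for about 90 hours before reading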
[6] = inhibitors of intracellular T. cruzi replication, confirmation, NIH3T3 host cells, beta-gal luminescence (AID 2044); assay type: functional, cell-based;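 note: intracellular parasites grown in NIH/3T3 mouse fibroblasts as host cells; luminescent beta-galactosidase reporter signal from transgenic T. cruzi replicating inside host cells; inhibitors lower the luminescence signal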
Cytochrome P450 2C9 = Cytochrome P450 2C9 (Homo sapiens, UniProt P11712)
Cytochrome P450 3A4 = Cytochrome P450 3A4 (Homo sapiens, UniProt P08684);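 note: CYP3A4 tested as one member of a cytochrome P450 panel screen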
[7] = HEp-2 cell cytotoxicity, dose response, cytotoxicity control for RSV inhibitor project, HTS (AID 2410); assay type: functional; settings: human respiratory syncytial virus
INS1 = assay: beta cell apoptosis inhibitors, cytokine rescue, dose response, luminescence, retest (AID 449756); assay type: functional, cell-based; settings: Rattus norvegicus;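 note: cell death triggered by IL-1 beta plus TNF-alpha plus IFN-gamma mixture; protective hits raise ATP signal compared with cytokine alone wells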

Chain of Cytochrome P450 2C19 (P33261 whole entry): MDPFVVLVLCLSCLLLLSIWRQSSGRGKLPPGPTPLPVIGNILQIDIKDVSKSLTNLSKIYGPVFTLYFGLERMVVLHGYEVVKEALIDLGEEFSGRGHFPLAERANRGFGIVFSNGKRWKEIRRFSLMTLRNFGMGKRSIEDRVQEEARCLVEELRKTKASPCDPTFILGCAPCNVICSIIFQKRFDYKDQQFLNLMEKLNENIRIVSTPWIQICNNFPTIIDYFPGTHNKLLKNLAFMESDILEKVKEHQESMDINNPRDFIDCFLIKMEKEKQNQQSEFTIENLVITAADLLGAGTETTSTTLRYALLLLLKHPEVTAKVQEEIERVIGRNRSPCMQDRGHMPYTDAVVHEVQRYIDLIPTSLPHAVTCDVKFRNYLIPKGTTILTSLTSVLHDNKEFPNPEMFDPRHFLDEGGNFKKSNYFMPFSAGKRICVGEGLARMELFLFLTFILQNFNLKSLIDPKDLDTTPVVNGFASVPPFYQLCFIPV
Chain of Cytochrome P450 2C9 (P11712 whole entry): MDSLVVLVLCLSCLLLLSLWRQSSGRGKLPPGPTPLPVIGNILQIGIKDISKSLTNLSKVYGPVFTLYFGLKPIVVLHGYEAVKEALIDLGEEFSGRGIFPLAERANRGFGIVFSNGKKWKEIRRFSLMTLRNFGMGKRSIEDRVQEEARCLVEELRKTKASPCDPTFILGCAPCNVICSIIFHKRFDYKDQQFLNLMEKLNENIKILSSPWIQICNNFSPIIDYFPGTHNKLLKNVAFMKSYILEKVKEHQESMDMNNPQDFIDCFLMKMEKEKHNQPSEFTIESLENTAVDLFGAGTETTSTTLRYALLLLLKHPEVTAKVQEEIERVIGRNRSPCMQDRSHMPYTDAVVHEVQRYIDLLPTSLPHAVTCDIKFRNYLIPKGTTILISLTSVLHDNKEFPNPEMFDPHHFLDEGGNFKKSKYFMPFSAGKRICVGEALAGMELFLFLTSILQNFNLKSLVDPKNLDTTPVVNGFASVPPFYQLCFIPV
Chain of Cytochrome P450 3A4 (P08684 whole entry): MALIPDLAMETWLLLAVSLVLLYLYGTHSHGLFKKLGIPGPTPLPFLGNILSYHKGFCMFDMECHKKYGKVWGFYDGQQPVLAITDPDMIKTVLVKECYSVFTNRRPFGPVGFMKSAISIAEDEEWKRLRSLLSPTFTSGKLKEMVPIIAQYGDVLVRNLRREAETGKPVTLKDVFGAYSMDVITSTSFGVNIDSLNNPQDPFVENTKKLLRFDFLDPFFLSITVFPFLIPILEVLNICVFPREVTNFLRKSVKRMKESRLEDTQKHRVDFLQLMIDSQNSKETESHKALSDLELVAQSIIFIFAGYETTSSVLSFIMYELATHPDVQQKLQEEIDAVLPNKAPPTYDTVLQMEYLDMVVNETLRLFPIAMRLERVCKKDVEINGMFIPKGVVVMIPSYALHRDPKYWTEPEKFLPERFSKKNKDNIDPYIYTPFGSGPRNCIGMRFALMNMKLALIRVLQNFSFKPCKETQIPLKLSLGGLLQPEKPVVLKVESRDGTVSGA
Chain of Luciferin 4-monooxygenase (P08659 whole entry): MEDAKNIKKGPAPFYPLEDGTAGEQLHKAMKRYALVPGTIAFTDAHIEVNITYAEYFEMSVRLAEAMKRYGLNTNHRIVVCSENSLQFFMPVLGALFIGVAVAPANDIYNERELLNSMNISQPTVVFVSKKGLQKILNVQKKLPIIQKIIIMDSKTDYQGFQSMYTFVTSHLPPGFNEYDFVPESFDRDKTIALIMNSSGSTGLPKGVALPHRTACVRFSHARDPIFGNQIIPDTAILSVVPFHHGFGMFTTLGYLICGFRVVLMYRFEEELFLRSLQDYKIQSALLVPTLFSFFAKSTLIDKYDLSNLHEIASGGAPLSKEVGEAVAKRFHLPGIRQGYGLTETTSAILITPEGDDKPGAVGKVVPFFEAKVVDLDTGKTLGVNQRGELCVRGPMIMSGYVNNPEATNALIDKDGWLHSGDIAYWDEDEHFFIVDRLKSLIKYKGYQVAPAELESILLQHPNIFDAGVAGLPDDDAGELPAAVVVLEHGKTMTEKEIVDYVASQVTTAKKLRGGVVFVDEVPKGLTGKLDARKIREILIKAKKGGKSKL

With `Nc1cc(-c2ccccc2)nn1Cc1ccc(Cl)cc1` the EC50 [1] was > 112 µM (not active) and the EC50 [2] was > 112 µM (not active).
For `CCOC(=O)c1cn(-c2nc(-c3ccc(Cl)cc3)cs2)c2c(F)c(N3CC(C)OC(C)C3)c(F)cc2c1=O` (stereo not drawn), the AC50 (Cytochrome P450 2C19; read-out: AC50) was 17.8 µM (inconclusive).
With `O=C(Oc1ccc(N(C(=O)c2ccncc2)S(=O)(=O)c2ccc(Cl)cc2)cc1)c1ccncc1` the AC50 [3] was 9.26 µM (active) and the EC50 (Protein RecA) was 16.4 µM (active).
In the case of `COCCSc1ccccc1C(=O)Nc1ccc2c(c1)OCO2`, the EC50 [1] is reported as > 112 µM (not active) and the EC50 [2] is reported as > 112 µM (not active).
With `COCCN(C(=O)COC(=O)CCc1nc2ccccc2s1)c1c(N)n(Cc2ccccc2)c(=O)[nH]c1=O` the EC50 [1] was > 112 µM (not active) and the EC50 [2] was > 112 µM (not active).
With `COc1nc(C(=N)NO)nc(N2CCCCC2)n1` the AC50 (Cytochrome P450 2C19; read-out: AC50) was 39.8 µM (inconclusive).
In the case of `CC(C)C(=O)Nc1ccc(NC(=S)NC(=O)c2ccccc2F)cc1`, the EC50 [1] is reported as > 112 µM (not active) and the EC50 [2] is reported as > 112 µM (not active).
For `COC(=O)c1ccccc1Oc1cc(C(F)(F)F)nc(-c2ccccn2)n1`, the EC50 [1] was > 112 µM (not active) and the EC50 [2] was > 112 µM (not active).
For `Cc1cc(C)n(C(=O)c2cccc(S(=O)(=O)N3CCCCC3)c2)n1`, the EC50 [1] was > 112 µM (not active) and the EC50 [2] was > 112 µM (not active).
In the case of `CCOC(=O)c1c(NC(=O)CSc2nc3cc(C)ccc3[nH]2)sc2c1CC(C)(C)NC2(C)C`, the AC50 [4] is reported as 7.46 µM (active), the EC50 [5] is reported as 18.6 µM (active) and the EC50 [6] is reported as 0.855 µM (active).
In the case of `O=c1nc(-c2ccccc2)n(-c2ccccc2)c2ncccc12`, the AC50 (Cytochrome P450 2C19; read-out: AC50) is reported as 22.4 µM (inconclusive).
With `CCn1c(S)nnc1-c1ccoc1C` the AC50 (Cytochrome P450 2C9) was 31.6 µM (inconclusive) and the AC50 (Cytochrome P450 2C19; read-out: AC50) was 28.2 µM (inconclusive).
For `Cc1nc2cnc(Oc3ccccc3)nc2n(-c2ccccc2)c1=O`, the AC50 (Cytochrome P450 2C9) was 25.1 µM (inconclusive) and the AC50 (Cytochrome P450 3A4) was 25.1 µM (inconclusive).
In the case of `CCOC(=O)CN1C(=O)C(O)=C(C(C)=O)C1c1ccc(F)cc1` (stereo not drawn), the EC50 [1] is reported as > 112 µM (not active) and the EC50 [2] is reported as > 112 µM (not active).
With `COC(=O)[C@@]1(Cc2ccc(OC)cc2)[C@@H]2C(=CC(=O)[C@H]2CC(=O)C(=O)N(C)C)CN1C(=O)c1ccccc1` the AC50 (Cytochrome P450 2C9) was 25.1 µM (inconclusive) and the AC50 (Cytochrome P450 3A4) was 2.51 µM (inconclusive).
In the case of `COc1ccc(-c2[nH]nc3c2C(c2ccncc2)C(C#N)=C(N)O3)cc1` (stereo not drawn), the AC50 [3] is reported as 8.02 µM (active) and the EC50 (Protein RecA) is reported as 2.26 µM (active).
With `FC(F)(F)c1nnc(-c2ccccc2)nc1Oc1ccc(Cl)cc1Cl` the AC50 [3] was 1.44 µM (active), the CC50 [7] was 31.4 µM (active) and the EC50 (Protein RecA) was 0.481 µM (active).
With `Sc1nnc(-c2ccncc2)n1CC1CCCO1` (stereo not drawn) the AC50 (Cytochrome P450 2C9) was 28.2 µM (inconclusive), the AC50 (Cytochrome P450 2C19; read-out: AC50) was 31.6 µM (inconclusive) and the AC50 (Cytochrome P450 3A4) was 22.4 µM (inconclusive).
In the case of `Cc1ccc(C2CCN(C(=O)Nc3ccccc3)C2)cc1` (stereo not drawn), the EC50 [1] is reported as > 112 µM (not active) and the EC50 [2] is reported as > 112 µM (not active).
In the case of `COC(=O)c1ccc(/C=C/c2c(-c3ccc(OC)cc3)oc3ccc(N4CCOCC4)cc23)cc1`, the AC50 [4] is reported as 2 µM (active).
With `O=C(/C=C/c1ccco1)NCC1OCCc2ccccc21` (stereo not drawn) the AC50 [4] was > 195 µM (inactive).
In the case of `C[Se]C[C@@H](N)C(=O)O`, the AC50 (Cytochrome P450 2C19) is reported as “inconclusive” and the AC50 (Cytochrome P450 3A4) is reported as 1.26 µM (inconclusive).
In the case of `COc1cc2cc(CN(CCCO)S(=O)(=O)c3ccccc3Cl)c(O)nc2cc1OC`, the AC50 (Cytochrome P450 2C19; read-out: AC50) is reported as 39.8 µM (inconclusive).
For `O=C(Nc1ccc(S(=O)(=O)NCc2ccco2)cc1)c1ccc(F)cc1`, the EC50 [1] was > 112 µM (not active) and the EC50 [2] was > 112 µM (not active).
With `N=C1O[C@@H](c2c[nH]c3ccc(OCc4ccccc4)cc23)C(O)=C1O` the AC50 (Cytochrome P450 2C19; read-out: AC50) was 6.31 µM (inconclusive) and the AC50 (Cytochrome P450 3A4) was 3.16 µM (inconclusive).
In the case of `S=C(Nc1ccccc1Cl)N(CCCN1CCOCC1)Cc1ccco1`, the EC50 [1] is reported as > 112 µM (not active) and the EC50 [2] is reported as > 112 µM (not active).
For `CCOC(=O)C1CCCN(C(=O)C2CCN(S(=O)(=O)N3CCC4(CC3)OCCO4)CC2)C1` (stereo not drawn), the AC50 (Cytochrome P450 2C19; read-out: AC50) was 35.5 µM (inconclusive) and the AC50 (Cytochrome P450 3A4) was 20 µM (inconclusive).
For `CCC(C)OC(=O)C1=C(C)OC23OC(N)=C(C#N)C12C(=O)c1ccccc13` (stereo not drawn), the EC50 [1] was > 112 µM (not active) and the EC50 [2] was > 112 µM (not active).
In the case of `Cc1ccc(S(=O)(=O)Nc2ccc(C(OC(=O)c3ccccc3[N+](=O)[O-])(C(F)(F)F)C(F)(F)F)cc2)cc1`, the AC50 (INS1) is reported as 14.3 µM (active) and the AC50 [4] is reported as 6.11 µM (active).
With `O=C(c1ccccc1NS(=O)(=O)c1cccc([N+](=O)[O-])c1)N1CCOCC1` the AC50 (Cytochrome P450 2C9) was 7.94 µM (inconclusive) and the AC50 (Cytochrome P450 3A4) was 17.8 µM (inconclusive).
In the case of `C#CCOc1ccc(OC)cc1C(c1c(C)n[nH]c1O)c1c(C)n[nH]c1O`, the AC50 [3] is reported as 0.405 µM (active) and the EC50 (Protein RecA) is reported as 0.187 µM (active).
For `C[C@H](CO)N1C[C@H](C)[C@H](CN(C)Cc2ccc(-c3ccccc3)cc2)Oc2ccc(NS(=O)(=O)c3ccccc3)cc2CC1=O`, the AC50 [4] was 5.07 µM (active).
With `Cc1cccc(/N=C2\C(Cl)=C(O)OC2OC(=O)c2ccco2)c1` (stereo not drawn) the AC50 [3] was 13.8 µM (active) and the EC50 (Protein RecA) was 12.9 µM (active).
With `CCOc1ccc(/C=N/NC(=O)c2ccoc2C)cc1OC` the EC50 [1] was 28.3 µM (active) and the EC50 [2] was 6.04 µM (active).
With `O=C(Nc1ccccc1C(=O)N/N=C/c1ccco1)c1ccc(Cl)cc1` the EC50 [1] was 0.192 µM (active) and the EC50 [2] was 10.9 µM (active).
With `CC(/C=C/c1ccco1)=N/NC(=O)c1ccccc1Cl` the AC50 (Cytochrome P450 2C19; read-out: AC50) was 39.8 µM (inconclusive) and the AC50 (Cytochrome P450 3A4) was 31.6 µM (inconclusive).
In the case of `Cn1cc(/C=N/n2cnc3sc4c(c3c2=O)CCCC4)c2ccccc21`, the AC50 (Cytochrome P450 2C9) is reported as 39.8 µM (inconclusive) and the AC50 (Cytochrome P450 3A4) is reported as 22.4 µM (inconclusive).
With `CCc1[nH]nc2c1C(Cc1ccccc1)C(C#N)=C(N)O2` (stereo not drawn) the AC50 [3] was 22.3 µM (active) and the EC50 (Protein RecA) was 6.37 µM (active).
For `Cc1c(O)cccc1C(=O)N[C@@H](CSc1ccccc1)[C@H](O)CN1C[C@H]2CCCC[C@H]2C[C@H]1C(=O)NC(C)(C)C` [NELFINAVIR MESYLATE], the AC50 [4] was 4.22 µM (active).
